From patent US8791079B2, “Methods for treating heart failure by inhibiting the mitochondrial sodium-calcium exchanger (mNCE)” (priority 2009, dated 2014) come the findings set out here.

In assay [1] the test system is Guinea pig ventricular myocytes. The experiment in a line: Mitochondrial Ca2+ ([Ca2+]m, rhod-2) in patch-clamped myocytes. It is filed as cell-based. As to the method: (§1) Guinea pig ventricular myocytes were isolated by enzymatic digestion as described previously. O'Rourke, B., et al., “Oscillations of membrane current and excitability driven by metabolic oscillations in heart cells,” Science, 265(5174):962-966 (Aug. 12, 1994). Cells were suspended in Dulbecco's Modification of Eagle's Medium (DMEM) supplemented with 5% fetal bovine serum, 1% penicillin/streptomycin, and 15 mmol/L HEPES, pH 7.4, and stored in a 5% CO2 incubator at 37° C.
Cytosolic Ca^2+ ([Ca^2+]c), mitochondrial Ca^2+ ([Ca^2+]m), and [Na^+]i were measured with the fluorescent indicators indo-1, rhod-2, and sodium-binding benzofuran isophthalate (SBFI), respectively (Invitrogen, Carlsbad, Calif.), and mitochondrial NADH was measured as the cellular autofluorescence with 360-nm excitation/450-nm emission. Indo-1 was loaded into cell with the membrane permeable form, indo-1 AM. To minimize indo-1 loading into the mitochondrial compartment, cells were briefly incubated with indo-1 AM at room temperature for 20 min. Rhod-2 and SBFI experiments were carried out as previously described. Maack et al., supra, Liu and O'Rourke, supra. […]
Isolated ventricular myocytes were loaded into a heated field-stimulation chamber (Warner Instruments, Hamden, Conn.) at 37° C. on the stage of a fluorescence microscope (Nikon Eclipse TE300, Nikon Instruments, Inc., Melville, N.Y.). […]
In general terms: Patch clamp records ionic current or voltage across a cell membrane.

For assay [2] the test system is unchanged. The experiment in a line: Action potentials and delayed afterdepolarizations in current-clamped myocytes. It is filed as cell-based. Particulars: for incidence of DAD-triggered APs: 100-nM isoproterenol, 1-μM ouabain without or with 1-μM CGP-37157, 1 Hz, last minute of stimulation. The method, then: as §1
Isolated ventricular myocytes were loaded into a heated field-stimulation chamber (Warner Instruments, Hamden, Conn.) at 37° C. on the stage of a fluorescence microscope (Nikon Eclipse TE300, Nikon Instruments, Inc., Melville, N.Y.). The myocytes were first superfused with control Tyrode's solution containing: NaCl (130 mmol/L), KCl (5 mmol/L), MgCl2 (1 mmol/L), Na-HEPES (10 mmol/L), CaCl2 (2 mmol/L), glucose (10 mmol/L), at pH 7.4. After one minute of recording in the absence of electrical stimulation in control buffer, 1-μM ouabain and 100-nM isoproterenol, with or without 1 μM CGP-37157, were added to buffer. After another five minutes of recording, myocytes were field-stimulated at 1 Hz for three minutes followed by a two-minute recording after returning to the resting state. To record [Ca^2+]m and action potentials, myocytes were whole-cell patch-clamped at 37° C. Tyrode's solution was used as external solution and the internal solution contained: NaCl (10 mmol/L), KCl (19 mmol/L), K-glutamate (125 mmol/L), MgCl2 (0.5 mmol/L), HEPES (10 mmol/L), MgATP (5 mmol/L), at pH 7.25.
In current-clamped myocytes, electrically-stimulated action potentials (APs) were recorded at 1 Hz and the probability of observing one or more delayed afterdepolarization-(DAD) triggered action potentials was determined during the last minute of stimulation.

The subject of the next assay is Guinea pig hearts. Nature of the assay: Hemodynamics of isolated perfused hearts (Langendorff). An excerpt:
Guinea pig hearts were quickly excised under anesthesia and mounted on a modified Langendorff apparatus attached to a Powerlab system (AD Instruments, Colorado Springs, Colo.). Hearts were perfused with gassed (95/5% O2/CO2) control buffer containing: 118-mM NaCl, 24-mM NaHCO3, 1.2-mM KH2PO4, 4.75-mM KCl, 1.2-mM MgSO4, 2.0-mM CaCl2, and 10-mM glucose. A buffer-filled latex balloon (Harvard apparatus) was inserted through the mitral valve into the left ventricle. Hearts were suspended in a buffer-filled heating chamber maintained at 37° C. and two electrodes were placed into the bath for volume-conducted electrocardiogram recordings. Heart rate, left ventricular developed pressure (LVDP), maximal rates of contraction and relaxation (±dP/dt), oxygen consumption, and electrocardiograms (ECG) were recorded on a computer. After a ten-minute equilibration period, hearts were subjected to the following protocol: ten-minute baseline recording while the heart was perfused with control buffer, ten-minute recording while 0.25-μM ouabain with or without 1 μM CGP-37157, and sixty-minute recording while hearts were stimulated with 25-nM isoproterenol. The measurements of hemodynamic parameters were determined by taking the average during the last two minutes before ouabain treatment (baseline) and for two minutes during the maximal effect on LVDP of either ouabain or isoproterenol.
In Table 1A-1C, hemodynamics of isolated perfused hearts were recorded at baseline, with ouabain treatment (1 μM), and with ouabain plus isoproterenol (100 nM) stimulation with or without CGP-37157 (1 μM). HR, heart rate; LVDP, left ventricular developed pressure; Oua: ouabain; CGP: CGP-37157; VF: ventricular fibrillation. *p<0.05 compared to group without CGP; † p<0.05 compared to baseline.

[3] abbreviates: ouabain application, without or with CGP-37157.
Where [4] appears, read: with ouabain treatment (1 μM, 0.25-μM), −CGP = ouabain alone, +CGP = plus CGP-37157 1 μM.
Where [5] appears, read: with ouabain treatment and isoproterenol stimulation, −CGP without, +CGP with CGP-37157 1 μM.
Where [6] appears, read: 25-nM isoproterenol in ouabain-treated hearts, absence (isoproterenol) or presence of CGP-37157.
[7] abbreviates: at baseline, group with CGP-37157.

Molecules are shown by their SMILES.

As to `C[C@@H]1O[C@@H](O[C@H]2C[C@@H](O)[C@]3(CO)[C@H]4[C@H](O)C[C@]5(C)[C@@H](C6=CC(=O)OC6)CC[C@]5(O)[C@@H]4CC[C@]3(O)C2)[C@H](O)[C@H](O)[C@H]1O` [ouabain, 1β,3β,5β,11α,14,19-Hexahydroxycard-20(22)-enolide 3-(6-deoxy-α-L-mannopyranoside, reference compound], the “increase of diastolic [Ca2+]m during 1-Hz stimulation” value in assay [1] (1-μM ouabain + 100-nM isoproterenol) is reported as less than 10%. Besides, the “incidence of DAD-triggered APs” value in assay [2] is “significant increase in the incidence of DAD-triggered APs”. For the same molecule, in the assay on Guinea pig hearts (setting [3]), the “increase of +dP/dt compared to baseline” value was found to be 20%, the “increase of LVDP compared to baseline” value was determined as 13% and the “increase of −dP/dt compared to baseline” value is 4%. In the assay with Guinea pig hearts (setting [4]), the “+dP/dt” value was 2241 ± 376 †, the HR was 246.3 ± 20.3, the LVDP is 106.0 ± 17.0 † and the “−dP/dt” value is −1855 ± 229 †. Also, in the assay on Guinea pig hearts (setting [5]), the “+dP/dt” value is reported as 3529 ± 644 †, the HR was 315.3 ± 25.0 † and the LVDP is reported as 100.4 ± 18.3.

As for `O=C1CSC(c2ccccc2Cl)c2cc(Cl)ccc2N1` (stereo not drawn) [CGP-37157, 7-chloro-5-(2-chlorophenyl)-1,5-dihydro-4,1-benzothiazepin-2(3H)-one], the “[Ca2+]m accumulation” value in assay [1] (1 μM CGP-37157 with 1-μM ouabain + 100-nM isoproterenol, 1-Hz stimulation) was “significantly enhanced [Ca^2+]m accumulation”. The “incidence of DAD-triggered APs” value in assay [2] is “not significantly different from controls”. The “amplitude of DADs” value in assay [2] (ouabain plus CGP-37157 versus ouabain alone) was “smaller amplitude than in ouabain alone”. In the assay with Guinea pig hearts (setting [6]), the “increase of +dP/dt compared to the level with ouabain treatment” value was found to be 75%, the “increase of LVDP compared to the level with ouabain treatment” value was found to be 30%, the “increase of heart rate (HR) compared to the level with ouabain treatment” value came out at 23% and the “increase of −dP/dt compared to the level with ouabain treatment” value came out at 53%. In addition, in the assay on Guinea pig hearts (setting [7]), the “+dP/dt” value was found to be 2326 ± 303, the HR was 239.3 ± 8.0, the LVDP is 91.9 ± 10.6 and the “−dP/dt” value is reported as −1872 ± 163. For the same molecule, in the assay on Guinea pig hearts (setting [3]), the “increase of +dP/dt compared to baseline” value is given as “approximately 36%” and the “increase of −dP/dt compared to baseline” value is listed as “approximately 23%”. In addition, in the assay with Guinea pig hearts (setting [4]), the “+dP/dt” value was 3167 ± 481 †, the HR worked out at 250.0 ± 13.4, the LVDP is 100.7 ± 12.0 † and the “−dP/dt” value is given as −2306 ± 218 †. In addition, in the assay on Guinea pig hearts (setting [5]), the “+dP/dt” value was 5530 ± 736 † *, the HR is reported as 306.7 ± 22.8 †, the LVDP was 130.9 ± 18.4 † and the “−dP/dt” value was −3518 ± 419 †.
